Laboratory results published in patent US20060235076A1, “Medicinal composition for treating infection with drug-resistant staphylococcus aureus” (priority 2003, published 2006).

Experiments:
[1] = system: MRSA COL and MRSA Strain No. 5; test: Potentiating effect of various gallates for antibacterial activity of oxacillin (MIC by broth microdilution method and FIC); type: cell-based, Staphylococcus aureus; conditions: for effect of the combination use with oxacillin by FIC values: COL Strain and Strain No. 5; for FIC value: combination with oxacillin
Procedure: According to the broth microdilution method defined by Japan Society of Chemotherapy, MIC was determined. CAMHA was prepared by adding 50 mg/l of Ca-ion, 25 mg/l of Mg-ion, and 2% of NaCl to MHB (Mueller-Hinton Broth), and it was used as a medium for use in the measurement of sensitivity. In 96-well microplates 100 μl of the medium for use in the measurement of sensitivity containing drugs was dispensed. The bacterial liquid was incubated at 37° C. overnight, diluted with saline and added to the plate so that the final concentration of the bacteria was 5×10^5 CFU/well. […] FIC (fractional inhibitory concentration) was calculated from the result and the potency of the effect of the combination use was evaluated.

MRSA = test: Potentiating effect of galloyl quinic acid derivatives for the antibacterial activity of oxacillin (agar plate dilution method, MIC); type: cell-based, Staphylococcus aureus
Procedure: According to the agar plate dilution method defined by Japan Society of Chemotherapy, MIC (Minimum inhibitory concentration) was determined. CAMHA was prepared by adding 50 mg/l of Ca-ion, 25 mg/l of Mg-ion, and 2% of NaCl to Mueller-Hinton II Agar (MHA), and it was used as a medium for use in the measurement of sensitivity. The bacterial liquid was incubated at 37° C. overnight and diluted to 10^6 CFU/ml with saline.
It was confirmed that the known substances shown below were contained in “Tara” and their MICs were determined as described in example 2 with respect to the effects of the combination use with oxacillin

`O=C(O[C@@H]1Cc2c(O)cc(O)cc2O[C@H]1c1cc(O)c(O)c(O)c1)c1cc(O)c(O)c(O)c1` [Gallocatechin gallate, gallocatechin gallate] was tested, and the “effect of the combination use with oxacillin by FIC values” (shortened to “effect of the combination use”) [1] was “more potent effects of the combination use”, the FIC value ([1]; MRSA COL) was 0.281 and the FIC value ([1]; MRSA Strain No. 5) was 0.188.

With `O=C(O[C@@H]1Cc2c(O)cc(O)cc2O[C@@H]1c1ccc(O)c(O)c1)c1cc(O)c(O)c(O)c1` [Epicatechin gallate, epicatechin gallate] the “effect of the combination use” value [1] was “more potent effects of the combination use”, the FIC value ([1]; MRSA COL) was 0.127 and the FIC value ([1]; MRSA Strain No. 5) was 0.188.

catechin gallate was tested, and the “effect of the combination use” value [1] was “most potent”, the FIC value ([1]; MRSA COL) was under 0.25 and the FIC value ([1]; MRSA Strain No. 5) was 0.064.

`O=C(OC1CC(O)(C(=O)O)CC(O)C1OC(=O)c1cc(O)c(O)c(O)c1)c1cc(O)c(O)c(O)c1` (stereo not shown) [3,4-digalloylquinic acid] was tested, and the “effect of combination use with oxacillin (words)” value (MRSA) was “weak effects”.

For `O=C(OC1CC(O)(C(=O)O)CC(OC(=O)c2cc(O)c(O)c(O)c2)C1OC(=O)c1cc(O)c(O)c(O)c1)c1cc(O)c(O)c(O)c1` (stereo not shown) [compound 3], the “Oxacillin MIC” value (MRSA; ATCC 6538, with 12.5 μg/ml of compound) was under 0.5 µg/mL, the “Oxacillin MIC” value (MRSA; ATCC 6538, with 25 μg/ml of compound) was under 0.5 µg/mL and the “Oxacillin MIC” value (MRSA; ATCC 6538, with 50 μg/ml of compound) was under 0.5 µg/mL. The “Oxacillin MIC” value (MRSA; MRSA 1, with 12.5 μg/ml of compound) was 128 µg/mL, the “Oxacillin MIC” value (MRSA; MRSA 1, with 25 μg/ml of compound) was 32 µg/mL and the “Oxacillin MIC” value (MRSA; MRSA 1, with 50 μg/ml of compound) was 64 µg/mL. The “Oxacillin MIC” value (MRSA; MRSA 2, with 12.5 μg/ml of compound) was 2 µg/mL, the “Oxacillin MIC” value (MRSA; MRSA 2, with 25 μg/ml of compound) was under 0.5 µg/mL and the “Oxacillin MIC” value (MRSA; MRSA 2, with 50 μg/ml of compound) was under 0.5 µg/mL. For the same molecule, the “Oxacillin MIC” value (MRSA; MRSA 3, with 12.5 μg/ml of compound) was 4 µg/mL, the “Oxacillin MIC” value (MRSA; MRSA 3, with 25 μg/ml of compound) was under 0.5 µg/mL and the “Oxacillin MIC” value (MRSA; MRSA 3, with 50 μg/ml of compound) was 1 µg/mL. The “Oxacillin MIC” value (MRSA; MRSA 4, with 12.5 μg/ml of compound) was 32 µg/mL, the “Oxacillin MIC” value (MRSA; MRSA 4, with 25 μg/ml of compound) was 4 µg/mL and the “Oxacillin MIC” value (MRSA; MRSA 4, with 50 μg/ml of compound) was 2 µg/mL. The “Oxacillin MIC” value (MRSA; MRSA 5, with 12.5 μg/ml of compound) was 64 µg/mL, the “Oxacillin MIC” value (MRSA; MRSA 5, with 25 μg/ml of compound) was 8 µg/mL and the “Oxacillin MIC” value (MRSA; MRSA 5, with 50 μg/ml of compound) was 8 µg/mL. The “Oxacillin MIC” value (MRSA; MRSA 6, with 12.5 μg/ml of compound) was 4 µg/mL, the “Oxacillin MIC” value (MRSA; MRSA 6, with 25 μg/ml of compound) was 2 µg/mL and the “Oxacillin MIC” value (MRSA; MRSA 6, with 50 μg/ml of compound) was 4 µg/mL. For the same molecule, the “Oxacillin MIC” value (MRSA; MRSA 7, with 12.5 μg/ml of compound) was 16 µg/mL, the “Oxacillin MIC” value (MRSA; MRSA 7, with 25 μg/ml of compound) was 4 µg/mL and the “Oxacillin MIC” value (MRSA; MRSA 7, with 50 μg/ml of compound) was 2 µg/mL. The “Oxacillin MIC” value (MRSA; MRSA 8, with 12.5 μg/ml of compound) was 8 µg/mL, the “Oxacillin MIC” value (MRSA; MRSA 8, with 25 μg/ml of compound) was 4 µg/mL and the “Oxacillin MIC” value (MRSA; MRSA 8, with 50 μg/ml of compound) was 8 µg/mL. The “Oxacillin MIC” value (MRSA; MRSA 9, with 12.5 μg/ml of compound) was 8 µg/mL, the “Oxacillin MIC” value (MRSA; MRSA 9, with 25 μg/ml of compound) was 2 µg/mL and the “Oxacillin MIC” value (MRSA; MRSA 9, with 50 μg/ml of compound) was 2 µg/mL. For the same molecule, the “Oxacillin MIC” value (MRSA; MRSA 10, with 12.5 μg/ml of compound) was 4 µg/mL, the “Oxacillin MIC” value (MRSA; MRSA 10, with 25 μg/ml of compound) was 2 µg/mL and the “Oxacillin MIC” value (MRSA; MRSA 10, with 50 μg/ml of compound) was 4 µg/mL. For the same molecule, the “Oxacillin MIC” value (MRSA; MRSA 12, with 12.5 μg/ml of compound) was 8 µg/mL, the “Oxacillin MIC” value (MRSA; MRSA 12, with 25 μg/ml of compound) was 4 µg/mL and the “Oxacillin MIC” value (MRSA; MRSA 12, with 50 μg/ml of compound) was 4 µg/mL. The “Oxacillin MIC” value (MRSA; MRSA 16, with 12.5 μg/ml of compound) was 32 µg/mL, the “Oxacillin MIC” value (MRSA; MRSA 16, with 25 μg/ml of compound) was 8 µg/mL and the “Oxacillin MIC” value (MRSA; MRSA 16, with 50 μg/ml of compound) was 8 µg/mL. For the same molecule, the “Oxacillin MIC” value (MRSA; MRSA 17, with 12.5 μg/ml of compound) was 4 µg/mL, the “Oxacillin MIC” value (MRSA; MRSA 17, with 25 μg/ml of compound) was 8 µg/mL and the “Oxacillin MIC” value (MRSA; MRSA 17, with 50 μg/ml of compound) was 4 µg/mL. The “Oxacillin MIC” value (MRSA; MRSA 18, with 12.5 μg/ml of compound) was 32 µg/mL, the “Oxacillin MIC” value (MRSA; MRSA 18, with 25 μg/ml of compound) was 4 µg/mL and the “Oxacillin MIC” value (MRSA; MRSA 18, with 50 μg/ml of compound) was 4 µg/mL. For the same molecule, the “Oxacillin MIC” value (MRSA; MRSA 20, with 12.5 μg/ml of compound) was under 0.5 µg/mL, the “Oxacillin MIC” value (MRSA; MRSA 20, with 25 μg/ml of compound) was under 0.5 µg/mL and the “Oxacillin MIC” value (MRSA; MRSA 20, with 50 μg/ml of compound) was under 0.5 µg/mL. For the same molecule, the “Oxacillin MIC” value (MRSA; MRSA 21, with 12.5 μg/ml of compound) was 1 µg/mL, the “Oxacillin MIC” value (MRSA; MRSA 21, with 25 μg/ml of compound) was under 0.5 µg/mL and the “Oxacillin MIC” value (MRSA; MRSA 21, with 50 μg/ml of compound) was under 0.5 µg/mL. For the same molecule, the “Oxacillin MIC” value (MRSA; MRSA 22, with 12.5 μg/ml of compound) was 1 µg/mL, the “Oxacillin MIC” value (MRSA; MRSA 22, with 25 μg/ml of compound) was under 0.5 µg/mL and the “Oxacillin MIC” value (MRSA; MRSA 22, with 50 μg/ml of compound) was 1 µg/mL. For the same molecule, the “Oxacillin MIC” value (MRSA; MRSA COL, with 12.5 μg/ml of compound) was 8 µg/mL, the “Oxacillin MIC” value (MRSA; MRSA COL, with 25 μg/ml of compound) was 4 µg/mL and the “Oxacillin MIC” value (MRSA; MRSA COL, with 50 μg/ml of compound) was 4 µg/mL. For the same molecule, the “Oxacillin MIC” value (MRSA; MSSA 1003, with 12.5 μg/ml of compound) was under 0.5 µg/mL, the “Oxacillin MIC” value (MRSA; MSSA 1003, with 25 μg/ml of compound) was under 0.5 µg/mL and the “Oxacillin MIC” value (MRSA; MSSA 1003, with 50 μg/ml of compound) was under 0.5 µg/mL. For the same molecule, the “Oxacillin MIC” value (MRSA; MSSA 1010, with 12.5 μg/ml of compound) was under 0.5 µg/mL, the “Oxacillin MIC” value (MRSA; MSSA 1010, with 25 μg/ml of compound) was under 0.5 µg/mL and the “Oxacillin MIC” value (MRSA; MSSA 1010, with 50 μg/ml of compound) was under 0.5 µg/mL. For the same molecule, the “Oxacillin MIC” value (MRSA; MSSA 1032, with 12.5 μg/ml of compound) was under 0.5 µg/mL, the “Oxacillin MIC” value (MRSA; MSSA 1032, with 25 μg/ml of compound) was under 0.5 µg/mL and the “Oxacillin MIC” value (MRSA; MSSA 1032, with 50 μg/ml of compound) was under 0.5 µg/mL. For the same molecule, the “Oxacillin MIC” value (MRSA; RN4220, with 12.5 μg/ml of compound) was under 0.5 µg/mL, the “Oxacillin MIC” value (MRSA; RN4220, with 25 μg/ml of compound) was under 0.5 µg/mL and the “Oxacillin MIC” value (MRSA; RN4220, with 50 μg/ml of compound) was under 0.5 µg/mL.
